Source: patent publication US20240067679A1, “SARS-COV-2 PROTEIN-DERIVED PEPTIDE AND VACCINE CONTAINING SAME” (Onco Therapy Science, Inc., priority 2021, published 2024)
Where two headings read alike, the source gives them in different places.

What was measured:
[1] = tested on: HLA-A*24:02-expressing target cells (TISI cells); format: cell-based, human
[2] = tested on: HLA-A*02:01-expressing target cells (T2 cells); format: cell-based, human
[3] = tested on: HLA-A*02:06-expressing target cells (HEV0011 cells); format: cell-based, human
[4] = tested on: HLA-A*02:01-expressing target cells (T2 cells); format: cell-based, human; remark: listed apart in the source
[5] = tested on: HLA-A*02:06-expressing target cells (HEV0011 cells); format: cell-based, human; remark: listed apart in the source
[6] = tested on: HLA-A*24:02-expressing target cells (TISI cells); format: cell-based, human; remark: listed apart in the source
[7] = tested on: CD8-positive T cells
[8] = target: T1, SARS-CoV-2 ORF1ab peptide on HLA-A*02:01 (human); assay: cytokine release
T1 peptide: NVLAWLYAAV

[9] = target: T2, SARS-CoV-2 ORF1ab peptide on HLA-A*02:01 (human); assay: cytokine release
T2 peptide: TLMIERFVSL

[10] = cells induced from HLA-A*24:02-positive PBMCs, peptide-pulsed TISI cells vs TISI cells not pulsed
[11] = HLA-A*02:01-restricted CTL lines, peptide-pulsed T2 cells
[12] = HLA-A*02:06-restricted CTL lines, peptide-pulsed HEV0011 cells
[13] = cells induced from HLA-A*02:01-positive PBMCs, peptide-pulsed T2 cells vs T2 cells not pulsed
[14] = cells induced from HLA-A*02:06-positive PBMCs, peptide-pulsed HEV0011 cells vs HEV0011 cells not pulsed

## YMPASWVMRI (a peptide derived from ORF1ab polyprotein of SARS-CoV-2) [Peptide 4, SARS-CoV-2 ORF1ab-derived 10 mer peptide, position 3654]
[1]; [10]
  Peptide-specific IFN-γ production (ELISPOT): no peptide-specific IFN-γ production was observed
[2]; [11]
  IFN-γ production by CTL lines (ELISA): observed
[3]; [12]
  IFN-γ production by CTL lines (ELISA): observed
[4]; [13]
  Peptide-specific IFN-γ production (ELISPOT): observed
[5]; [14]
  Peptide-specific IFN-γ production (ELISPOT): observed

## TLMIERFVSL (a peptide derived from ORF1ab polyprotein of SARS-CoV-2) [Peptide 10, SARS-CoV-2 ORF1ab-derived 10 mer peptide, position 5245]
[1]; [10]
  Peptide-specific IFN-γ production (ELISPOT): no peptide-specific IFN-γ production was observed
[2]; [11]
  IFN-γ production by CTL lines (ELISA): observed
[3]; [12]
  IFN-γ production by CTL lines (ELISA): observed
[4]; [13]
  Peptide-specific IFN-γ production (ELISPOT): observed
[5]; [14]
  Peptide-specific IFN-γ production (ELISPOT): observed

## FTYASALWEI [Peptide 7]
[1]
  Peptide-specific IFN-γ production (ELISPOT): no peptide-specific IFN-γ production was observed
[2]
  IFN-γ production by CTL lines (ELISA): observed
[3]
  IFN-γ production by CTL lines (ELISA): observed
[4]
  Peptide-specific IFN-γ production (ELISPOT): observed
[5]
  Peptide-specific IFN-γ production (ELISPOT): observed

## FGMSRIGMEV (a peptide derived from N polyprotein of SARS-CoV-2) [Peptide 9, SARS-CoV-2 N protein-derived 10 mer peptide, position 315]
[1]; [10]
  Peptide-specific IFN-γ production (ELISPOT): no peptide-specific IFN-γ production was observed
[4]; [13]
  Peptide-specific IFN-γ production (ELISPOT): observed

## FVLWAHGFEL [Peptide 3]
[6]
  IFN-γ production by CTL lines (ELISA): observed
[1]
  Peptide-specific IFN-γ production (ELISPOT): observed
[2]
  IFN-γ production by CTL lines (ELISA): observed
[3]
  IFN-γ production by CTL lines (ELISA): observed
[4]
  Peptide-specific IFN-γ production (ELISPOT): observed
[5]
  Peptide-specific IFN-γ production (ELISPOT): observed
[7]
  Detection of tetramer-positive CD8-positive T cells recognizing the peptide: detected

## NVLAWLYAAV (a peptide derived from ORF1ab polyprotein of SARS-CoV-2) [Peptide 12, SARS-CoV-2 ORF1ab-derived 10 mer peptide, position 3466]
[1]; [10]
  Peptide-specific IFN-γ production (ELISPOT): no peptide-specific IFN-γ production was observed
[2]; [11]
  IFN-γ production by CTL lines (ELISA): observed
[3]; [12]
  IFN-γ production by CTL lines (ELISA): observed
[4]; [13]
  Peptide-specific IFN-γ production (ELISPOT): observed
[5]; [14]
  Peptide-specific IFN-γ production (ELISPOT): observed

## YVYNPFMIDV (a peptide derived from ORF1ab polyprotein of SARS-CoV-2) [Peptide 11, SARS-CoV-2 ORF1ab-derived 10 mer peptide, position 6160]
[6]; HLA-A*24:02-restricted CTL lines, peptide-pulsed TISI cells
  IFN-γ production by CTL lines (ELISA): observed
[1]; [10]
  Peptide-specific IFN-γ production (ELISPOT): observed
[2]; [11]
  IFN-γ production by CTL lines (ELISA): observed
[3]; [12]
  IFN-γ production by CTL lines (ELISA): observed
[4]; [13]
  Peptide-specific IFN-γ production (ELISPOT): observed
[5]; [14]
  Peptide-specific IFN-γ production (ELISPOT): observed

## TLEPEYENSV [Peptide 13, SARS-CoV-2 ORF1ab-derived 10 mer peptide, position 5740]
[1]; [10]
  Peptide-specific IFN-γ production (ELISPOT): no peptide-specific IFN-γ production was observed
[4]; [13]
  Peptide-specific IFN-γ production (ELISPOT): observed

## FMIDVQQWGF (a peptide derived from ORF1ab polyprotein of SARS-CoV-2) [Peptide 15, SARS-CoV-2 ORF1ab-derived 10 mer peptide, position 6165]
[1]; [10]
  Peptide-specific IFN-γ production (ELISPOT): no peptide-specific IFN-γ production was observed
[2]; [11]
  IFN-γ production by CTL lines (ELISA): observed
[3]; [12]
  IFN-γ production by CTL lines (ELISA): observed
[4]; [13]
  Peptide-specific IFN-γ production (ELISPOT): observed
[5]; [14]
  Peptide-specific IFN-γ production (ELISPOT): observed

## LMYKGLPWNV [Peptide 2]
[1]
  Peptide-specific IFN-γ production (ELISPOT): no peptide-specific IFN-γ production was observed
[2]
  IFN-γ production by CTL lines (ELISA): observed
[4]
  Peptide-specific IFN-γ production (ELISPOT): observed
[5]
  Peptide-specific IFN-γ production (ELISPOT): not observed

## MMGFKMNYQV (a peptide derived from ORF1ab polyprotein of SARS-CoV-2) [Peptide 5, SARS-CoV-2 ORF1ab-derived 10 mer peptide, position 5982]
[1]; [10]
  Peptide-specific IFN-γ production (ELISPOT): no peptide-specific IFN-γ production was observed
[4]; [13]
  Peptide-specific IFN-γ production (ELISPOT): observed

## YSFLPGVYSV (a peptide derived from ORF1ab polyprotein of SARS-CoV-2) [Peptide 14, SARS-CoV-2 ORF1ab-derived 10 mer peptide, position 3098]
[1]; [10]
  Peptide-specific IFN-γ production (ELISPOT): no peptide-specific IFN-γ production was observed
[4]; [13]
  Peptide-specific IFN-γ production (ELISPOT): observed

## SLFDMSKFPL (a peptide derived from ORF1ab polyprotein of SARS-CoV-2) [Peptide 1, SARS-CoV-2 ORF1ab-derived 10 mer peptide, position 7041]
[1]; [10]
  Peptide-specific IFN-γ production (ELISPOT): no peptide-specific IFN-γ production was observed
[4]; [13]
  Peptide-specific IFN-γ production (ELISPOT): observed

## MMILSDDAV (a peptide derived from ORF1ab polyprotein of SARS-CoV-2) [Peptide 8, SARS-CoV-2 ORF1ab-derived 9 mer peptide, position 5147]
[4]; [13]
  Peptide-specific IFN-γ production (ELISPOT): not observed

B1: Peptide 12-responsive TCR-2 (TCR)
alpha TRAV24 TRAJ29 CDR3: CAFLSGNTPLVF
beta TRBV27 TRBJ1-6 CDR3: CASSPAAYSPLHF
[8]
  binding result: recognises

B2: Peptide 10-responsive TCR (TCR)
alpha TRAV8-6 TRAJ36 CDR3: CAITGANNLFF
beta TRBV20-1 TRBJ1-5 CDR3: CSAEDRGSNSNQPQHF
[9]
  binding result: recognises

B3: Peptide 12-responsive TCR-1 (TCR)
alpha TRAV1-2 TRAJ20 CDR3: CAVRDPRNDYKLSF
beta TRBV27 TRBJ1-1 CDR3: CATQVNTEAFF
[8]
  binding result: recognises
